# Experimental data published in US8486966B2, “9-(pyrazol-3-yl)-9H-purine-2-amine and 3-(pyrazol-3-yl) -3H-imidazo[4,5-B] pyridin-5-amine derivatives and their use for the treatment of cancer” (Astrazeneca AB, priority 2007, dated 2013).
# Target: human JAK2 (Homo sapiens (Human), UniProt O60674)
# Experiment: JAK2 kinase Alphascreen assay
# Format: biochemical
# Settings: 150 pM JAK2 enzyme, 15 μM ATP, 60 minutes, room temperature; read-out: JAK inhibitory activity IC50
# Protocol: JAK2 kinase activity was determined by measuring the kinase's ability to phosphorylate synthetic tyrosine residues within a generic polypeptide substrate using an Amplified Luminescent Proximity Assay (Alphascreen) technology (PerkinElmer, 549 Albany Street, Boston, Mass.).
# To measure JAK2 kinase activity, a commercially available purified enzyme may be used. The enzyme may be a C-terminal His6-tagged, recombinant, human JAK2, amino acids 808-end, (Genbank Accession number NM 004972) expressed by baculovirus in Sf21 cells (Upstate Biotechnology MA). After incubation of the kinase with a biotinylated substrate and adenosine triphosphate (ATP) for 60 minutes at room temperature, the kinase reaction may be stopped by the addition of 30 mM ethylenediaminetetraacetic acid (EDTA). The reaction may be performed in 384 well microtitre plates and the reaction products may be detected with the addition of streptavidin coated Donor Beads and phosphotyrosine-specific antibodies coated Acceptor Beads using the EnVision Multilabel Plate Reader after an overnight incubation at room temperature.
# human JAK2, sequence (O60674 808-1132 limits assumed): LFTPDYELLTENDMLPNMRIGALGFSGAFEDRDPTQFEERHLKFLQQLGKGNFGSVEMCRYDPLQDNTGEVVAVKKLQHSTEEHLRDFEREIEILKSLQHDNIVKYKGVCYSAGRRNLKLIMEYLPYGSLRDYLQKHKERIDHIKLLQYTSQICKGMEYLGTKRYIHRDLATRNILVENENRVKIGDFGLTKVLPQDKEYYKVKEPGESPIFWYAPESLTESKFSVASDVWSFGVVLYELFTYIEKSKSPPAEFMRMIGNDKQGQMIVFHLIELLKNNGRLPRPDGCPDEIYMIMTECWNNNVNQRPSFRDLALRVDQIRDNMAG
row,IC50 [nM],Compound
1,3,"Cc1cc(-n2cnc3ccc(N[C@@H](C)c4ccc(F)cn4)nc32)n[nH]1 [Example 17, N-[(1S)-1-(5-Fluoropyridin-2-yl)ethyl]-3-(5-methyl-1H-pyrazol-3-yl)-3H-imidazo[4,5-b]pyridin-5-amine]"

# Target: human Trk A kinase (Homo sapiens (Human), UniProt P04629)
# Experiment: Trk A kinase Alphascreen assay
# Format: biochemical
# Settings: 0.838 ng/ml Trk A, 70 μM ATP, 20 minutes, room temperature; read-out: Trk inhibitory activity IC50
# Protocol: Trk A kinase activity was determined by measuring the kinase's ability to phosphorylate synthetic tyrosine residues within a generic polypeptide substrate using an Amplified Luminescent Proximity Assay (Alphascreen) technology (PerkinElmer, 549 Albany Street, Boston, Mass.).
# To measure Trk A kinase activity, the intracellular domain of a HIS-tagged human Trk A kinase (amino acids 442-796 of Trk A, Swiss-Prot Primary Accession Number P04629) may be expressed in SF9 cells and purified using standard nickel column chromatography. After incubation of the kinase with a biotinylated substrate and adenosine triphosphate (ATP) for 20 minutes at room temperature, the kinase reaction may be stopped by the addition of 30 mM ethylenediaminetetraacetic acid (EDTA). The reaction may be performed in 384 well microtitre plates and the reaction products may be detected with the addition of strepavidin coated Donor Beads and phosphotyrosine-specific antibodies coated Acceptor Beads using the EnVision Multilabel Plate Reader after an overnight incubation at room temperature.
# human Trk A kinase, sequence (P04629 442-796): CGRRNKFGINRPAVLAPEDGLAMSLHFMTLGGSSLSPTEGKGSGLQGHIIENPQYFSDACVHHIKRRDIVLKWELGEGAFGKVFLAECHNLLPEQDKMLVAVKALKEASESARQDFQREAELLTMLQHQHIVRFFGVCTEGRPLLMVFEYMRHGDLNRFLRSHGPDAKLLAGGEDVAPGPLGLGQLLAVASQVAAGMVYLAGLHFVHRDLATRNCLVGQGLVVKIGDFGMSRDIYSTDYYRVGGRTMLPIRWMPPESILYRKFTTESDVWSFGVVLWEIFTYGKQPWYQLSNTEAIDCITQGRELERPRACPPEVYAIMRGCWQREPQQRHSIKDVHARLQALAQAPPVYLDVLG
row,IC50 [nM],Compound
1,96,"COc1nc(N[C@@H](C)c2ccc(F)cn2)nc2c1ncn2-c1cc(C)[nH]n1 [Example 21, N-[(1S)-1-(5-Fluoropyridin-2-yl)ethyl]-6-methoxy-9-(5-methyl-1H-pyrazol-3-yl)-9H-purin-2-amine]"
2,3,"CCOc1cc(-n2cnc3ccc(N[C@@H](CO)c4ccc(F)cn4)nc32)n[nH]1 [Example 8, (2R)-2-{[3-(5-Ethoxy-1H-pyrazol-3-yl)-3H-imidazo[4,5-b]pyridin-5-yl]amino}-2-(5-fluoropyridin-2-yl)ethanol]"
3,3,"CC(C)Oc1cc(-n2cnc3ccc(N[C@@H](C)c4ncc(F)cn4)nc32)n[nH]1 [Example 6, N-[(1S)-1-(5-Fluoropyrimidin-2-yl)ethyl]-3-(5-isopropoxy-1H-pyrazol-3-yl)-3H-imidazo[4,5-b]pyridin-5-amine]"
4,3,"CC(C)Oc1cc(-n2cnc3ccc(N[C@@H](C)c4ccc(F)cn4)nc32)n[nH]1 [Example 1, N-[(1S)-1-(5-fluoropyridin-2-yl)ethyl]-3-(5-isopropoxy-1H-pyrazol-3-yl)-3H-imidazo[4,5-b]pyridin-5-amine]"
5,61,"Cc1cc(-n2cnc3ccc(N[C@@H](C)c4ncc(F)cn4)nc32)n[nH]1 [Example 16, N-[(1S)-1-(5-Fluoropyrimidin-2-yl)ethyl]-3-(5-methyl-1H-pyrazol-3-yl)-3H-imidazo[4,5-b]pyridin-5-amine]"
6,3,"CC(C)Oc1cc(-n2cnc3ccc(N[C@@H](CO)c4ccc(F)cn4)nc32)n[nH]1 [Example 7, (2R)-2-(5-Fluoropyridin-2-yl)-2-{[3-(5-isopropoxy-1H-pyrazol-3-yl)-3H-imidazo[4,5-b]pyridin-5-yl]amino}ethanol]"
7,311,"Cc1cc(-n2cnc3cnc(N[C@@H](C)c4ccc(F)cn4)nc32)n[nH]1 [Example 18, N-[(1S)-1-(5-Fluoropyridin-2-yl)ethyl]-9-(5-methyl-1H-pyrazol-3-yl)-9H-purin-2-amine]"
8,6,"CC[C@H](Nc1ccc2ncn(-c3cc(OC(C)C)[nH]n3)c2n1)c1ccc(F)cn1 [Example 13, N-[(1S)-1-(5-Fluoropyridin-2-yl)propyl]-3-(5-isopropoxy-1H-pyrazol-3-yl)-3H-imidazo[4,5-b]pyridin-5-amine]"
9,3,"CC(C)Oc1cc(-n2cnc3cnc(N[C@@H](C)c4ccc(F)cn4)nc32)n[nH]1 [Example 11, N-[(1S)-1-(5-Fluoropyridin-2-yl)ethyl]-9-(5-isopropoxy-1H-pyrazol-3-yl)-9H-purin-2-amine]"
10,475,"Cc1cc(-n2cnc3c(NC4CCOCC4)nc(N[C@@H](C)c4ccc(F)cn4)nc32)n[nH]1 [Example 20, N^2-[(1S)-1-(5-Fluoropyridin-2-yl)ethyl]-9-(5-methyl-1H-pyrazol-3-yl)-N^6-(tetrahydro-2H-pyran-4-yl)-9H-purine-2,6-diamine]"
11,773,"Cc1cc(-n2cnc3c(N4CCOCC4)nc(N[C@@H](C)c4ccc(F)cn4)nc32)n[nH]1 [Example 22, N-[(1S)-1-(5-Fluoropyridin-2-yl)ethyl]-9-(5-methyl-1H-pyrazol-3-yl)-6-morpholin-4-yl-9H-purin-2-amine]"
12,4,"CC(C)Oc1cc(-n2cnc3cc(Cl)c(N[C@@H](C)c4ccc(F)cn4)nc32)n[nH]1 [Example 14, 6-Chloro-N-[(1S)-1-(5-fluoropyridin-2-yl)ethyl]-3-(5-isopropoxy-1H-pyrazol-3-yl)-3H-imidazo[4,5-b]pyridin-5-amine]"
13,5,"C[C@H](Nc1ncc2ncn(-c3cc(C4CC4)[nH]n3)c2n1)c1ccc(F)cn1 [Example 5, 9-(5-Cyclopropyl-1H-pyrazol-3-yl)-N-[(1S)-1-(5-fluoropyridin-2-yl)ethyl]-9H-purin-2-amine]"
14,12,"C[C@H](Nc1ncc2ncn(-c3cc(C4CC4)[nH]n3)c2n1)c1ncc(F)cn1 [Example 4, 9-(5-Cyclopropyl-1H-pyrazol-3-yl)-N-[(1S)-1-(5-fluoropyrimidin-2-yl)ethyl]-9H-purin-2-amine]"
15,3,"CC(C)Oc1cc(-n2cnc3cnc(N[C@@H](C)c4ncc(F)cn4)nc32)n[nH]1 [Example 12, N-[(1S)-1-(5-Fluoropyrimidin-2-yl)ethyl]-9-(5-isopropoxy-1H-pyrazol-3-yl)-9H-purin-2-amine]"
16,3,"CCOc1cc(-n2cnc3ccc(N[C@@H](C)c4ncc(F)cn4)nc32)n[nH]1 [Example 9, 3-(5-Ethoxy-1H-pyrazol-3-yl)-N-[(1S)-1-(5-fluoropyrimidin-2-yl)ethyl]-3H-imidazo[4,5-b]pyridin-5-amine]"
17,3810,"Cc1cc(-n2cnc3cc(F)c(N[C@@H](C)c4ncc(F)cn4)nc32)n[nH]1 [Example 15, 6-Fluoro-N-[(1S)-1-(5-fluoropyrimidin-2-yl)ethyl]-3-(5-methyl-1H-pyrazol-3-yl)-3H-imidazo[4,5-b]pyridin-5-amine]"
18,3,"C[C@H](Nc1ccc2ncn(-c3cc(C4CC4)[nH]n3)c2n1)c1ccc(F)cn1 [Example 2, 3-(5-Cyclopropyl-1H-pyrazol-3-yl)-N-[(1S)-1-(5-fluoropyridin-2-yl)ethyl]-3H-imidazo[4,5-b]pyridin-5-amine]"
19,14,"Cc1cc(-n2cnc3ccc(N[C@@H](C)c4ccc(F)cn4)nc32)n[nH]1 [Example 17, N-[(1S)-1-(5-Fluoropyridin-2-yl)ethyl]-3-(5-methyl-1H-pyrazol-3-yl)-3H-imidazo[4,5-b]pyridin-5-amine]"
20,7250,"Cc1cc(-n2cnc3c(C(=O)N4CCOCC4)nc(N[C@@H](C)c4ncc(F)cn4)nc32)n[nH]1 [Example 19, N-[(1S)-1-(5-Fluoropyrimidin-2-yl)ethyl]-9-(5-methyl-1H-pyrazol-3-yl)-6-(morpholin-4-ylcarbonyl)-9H-purin-2-amine]"
21,3,"CCOc1cc(-n2cnc3ccc(N[C@@H](C)c4ccc(F)cn4)nc32)n[nH]1 [Example 10, 3-(5-Ethoxy-1H-pyrazol-3-yl)-N-[(1S)-1-(5-fluoropyridin-2-yl)ethyl]-3H-imidazo[4,5-b]pyridin-5-amine]"
22,3,"CCOc1cc(-n2cnc3ccc(N[C@@H](CC)c4ccc(F)cn4)nc32)n[nH]1 [Example 23, 3-(5-Ethoxy-1H-pyrazol-3-yl)-N-[(1S)-1-(5-fluoropyridin-2-yl)propyl]-3H-imidazo[4,5-b]pyridin-5-amine]"
